Measured values from patent EP4613273A1, “TREATMENT OF BONE LOSS” (priority 2024, dated 2025).
Counter-ions that a name gives are not always drawn.

Legend:
Type in all cases: in vivo
CTX-1 = assay: Plasma CTX-1 (bone resorption marker) in healthy beagle dogs
Protocol: Compound Ib besylate salt (referred to as MIV-701 besylate salt) was administered once daily for 14 days to 3 healthy beagle dogs at three different doses: 1 mg/kg, 10 mg/kg and 100 mg/kg.
The doses were consecutively administered for 14 days with a >5-day washout period between two dose levels.
Each treatment period can be resumed as follows: • J0 (T+24h): first Compound Ib besylate salt administration, withdrawal of blood samples for pharmacokinetic and plasma CTX-1 assessment (pre-dose and 0.5h, 1h, 2h, 4h, 8h and 24h after drug administration), pre-dose blood samples for hematology and clinical biochemistry (baseline values for safety assessment). • J1 to J12: pre-dose blood samples • J13: last Compound Ib besylate salt administration, withdrawal of plasma samples for pharmacokinetic and plasma CTX-1 assessment (pre-dose and 0.5h, 1h, 2h, 4h, 8h and 24h after drug administration), pre-dose sampling for hematology and clinical biochemistry (baseline values for safety assessment). • J15-J≥19: washout period.

[1] = MIV-701/MIV-06404 plasma exposure ratio in cat; settings: for MIV-701/MIV-06404 exposure ratio: D13 (repeated); for MIV-701/MIV-06404 ratio: single oral administration (D0), exposure ratio
Protocol: (§1) MIV-701 besylate salt was administered once daily for 14 days to 4 healthy cats at three increasing doses: 2 mg/kg, 10 mg/kg and 50 mg/kg.
(§2) Each treatment period can be resumed as follows: • J0 (T+24h): first administration, withdrawal of blood samples for pharmacokinetic and plasma CTX-1 assessment (pre-dose and 0.5h, 1h, 2h, 4h, 8h and 24h after first drug administration), pre-dose blood samples for hematology and clinical biochemistry (baseline values for safety assessment). • J5 ([…]) and J8: pre-dose blood samples. • J13: last administration, withdrawal of plasma samples for pharmacokinetic and plasma CTX-1 assessment (pre-dose and 0.5h, 1h, 2h, 4h, 8h and 24h after last drug administration), pre-dose sampling for hematology and clinical biochemistry (baseline values for safety assessment). • J15 to J≥19: washout period.
After centrifugation of blood samples plasma aliquots were stored at -20°C._After thawing on ice, 30 µL of plasma were transferred into 1.5 ml microtube containing 270 µL acetonitrile. Microtubes were then vigorously stirred and then centrifuged (12000 rpm, 10 min, 4°C) and the supernatant was transferred in Matrix tube for LC-MS/MS analysis.
Equipment: LC-MS/MS Acquity I Class-Wevo TQD (Waters®): - Acquity I Class ∘ Column: Waters® Acquity BEH C8, 50*2.1mm, 1.7 µm (40°C) ∘ Mobile phase: • ▪ A: Ammonium Formate 5mM, pH=3.8 • ▪ B: Ammonimuformate 5 mM in CH3CN 5% aqueous, pH=3.8 ∘ Injection volume: 1 µL ∘ Speed: 600 µL/min ∘ Gradient: […]
- Xevo TQD • ∘ Source temperature: 150°C • ∘ Desolvatation temperature: 600°C • ∘ Cone gaz speed: 50L/h • ∘ Desolvatation gaz speed: 1200L/h - Analytes MS characteristics

[2] = Safety of repeated oral administration in healthy cats
Protocol: as §1
The three doses were consecutively administered for 14 days with a >5-day washout period between two dose levels.
as §2

[3] = tested on: dogs with alveolar bone loss induced by spontaneously developed periodontal disease; assay: Periodontal parameter assessment (CAL, PPD, bleeding) in dogs with periodontal disease; settings: CTX-1 responders; Day-90 vs Day-0
Protocol: The present study was performed on 10 Beagle dogs suffering from alveolar bone loss induced by spontaneously developed periodontal disease. All dogs were treated with MIV-701 besylate salt for minimum 30 day and maximum 90 days, depending on the tolerance at intermediate visits. The product is administrated to the dog by its owner at home, once a day with a meal.
There were two treatment groups: • Group A (5 dogs) with a dose of 25 mg/kg. • Group B (5 dogs) with a dose of 50 mg/kg.
The examination was performed at visit V2 (Day 0) and visit V5 (90t 3 days).
At visit V2 (Day 0) and V5 (90 ± 3 days). the Investigator evaluated the following parameters for each tooth: • Periodontal probing depth (PPD) - measured as the distance from the gingival margin to the bottom of the pocket using a graduated periodontal probe of Investigator's choice. The sulcus/pocket was measured circumferentially around the whole tooth and valued of 3 to 6 places, depending on the tooth localization (Figure 11). Measurements was done in millimeters (mm) and rounded to the nearest lower value. The mean PPD value of these measurements per tooth was calculated. • Clinical attachment loss (CAL) - measured as the distance from the cemento-enamel-junction to the bottom of the pocket using a periodontal probe of the Investigator choice. CAL was measured in 3 to 6 sites per tooth depending on the tooth localization (Figure 11). Measurements was done in millimeters (mm) and rounded to the nearest lower value (Kortegaard et al. 2014). The mean CAL value of these measurements per tooth will be calculated. • Bleeding Probing Index - assessed at each site of PPD and CAL measurement. Depending on the absence or presence of bleeding within 10 second following probing of the tooth, BPI scored either as 0 or 1 respectively. The mean BIP value was calculated per tooth.
At visit V5 (90t 3 days), the Investigator assessed PPD, CAL and BoP in only 3 selected teeth for the study and recorded it in PERIODONTAL PARAMETERS FORM.

CC(C)C[C@H](NC(=O)c1ccc(-c2csc(N3CCN(C)CC3)n2)cc1)C(=O)N1C[C@H](F)[C@H]2OCC(O)(O)[C@H]21 [MIV-701 besylate salt, N-[(S)-1-((3aS,6S,6aS)-6-Fluoro-S-oxo-hexahydro-furo[3,2-b]pyrrole-4-carbony)-3-methyl-butyl]-4-[2-(4-methyl-piperazin-1-yl)-thiazol-4-yl]-benzamide benzenesulphonate]
inhibition of pre-dose plasma CTX-1 vs baseline (CTX-1; 10 mg/kg once a day, D1 to end of 14 days): 40%
time of CTX-1 inhibition peak after administration (CTX-1; D0, three doses tested): 8 h
pre-dose plasma CTX-1 during repeated administration (CTX-1; once a day oral, D1 to end of 14 days): dose-dependent inhibition
CTX-1 plasma concentration 24 hours after administration (CTX-1; single dose 10mg/kg and 100 mg/kg): did not go back to pre-dose concentration
effect on plasma CTX-1 (CTX-1; single oral administration (D0) at 1 mg, 10 mg and 100 mg): dose-dependent effect
MIV-701/MIV-06404 exposure ratio ([1]; 2 mg/kg): 5.0
MIV-701/MIV-06404 exposure ratio ([1]; 10 mg/kg): 3.4
MIV-701/MIV-06404 ratio ([1]; 2 mg/kg): 6.9
MIV-701/MIV-06404 ratio ([1]; 10 mg/kg): 6.2
MIV-701/MIV-06404 ratio ([1]; 50 mg/kg): 3.9
adverse or irreversible effect ([2]; oral 2 mg/kg/day and 10 mg/kg/day during 14 days): did not induce any adverse or irreversible effect
adverse signs ([2]; oral 50 mg/kg/day during 4 days, led to treatment withdrawal, reversible): induced some digestive and behavioral degradations
Clinical Attachment Loss (CAL) [3]: significantly improved
Gingival Bleeding Index (GBI) [3]: not modified
Periodontal Probing Depth (PPD) [3]: significantly improved
